# Test results: patent US8299111B2, “Compounds which modulate the CB2 receptor” (Boehringer Ingelheim International GmbH, priority 2006, dated 2012)
# Biological target: T1, human CB2R (Homo sapiens, UniProt P34972)
# T1 construct: host or cells: CHO cells
# Test: CB2R mediated modulation of cAMP synthesis
# Format: cell-based
# Settings: found through the use of the above described assays (binding and cAMP); CHO cells expressing human CB2R, forskolin-stimulated cAMP
# How it was run: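 CHO cells expressing human CB2R were treated for 30 min at 37 °C with compound in buffer containing 1 mM IBMX, 0.25% BSA and 10 uM forskolin. cAMP was measured after lysis. EC50 is the concentration giving 50% inhibition of forskolin-stimulated cAMP, scaled to the level set by 1 uM CP55940, fitted by four-parameter logistic.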
# T1 sequence (P34972 whole entry): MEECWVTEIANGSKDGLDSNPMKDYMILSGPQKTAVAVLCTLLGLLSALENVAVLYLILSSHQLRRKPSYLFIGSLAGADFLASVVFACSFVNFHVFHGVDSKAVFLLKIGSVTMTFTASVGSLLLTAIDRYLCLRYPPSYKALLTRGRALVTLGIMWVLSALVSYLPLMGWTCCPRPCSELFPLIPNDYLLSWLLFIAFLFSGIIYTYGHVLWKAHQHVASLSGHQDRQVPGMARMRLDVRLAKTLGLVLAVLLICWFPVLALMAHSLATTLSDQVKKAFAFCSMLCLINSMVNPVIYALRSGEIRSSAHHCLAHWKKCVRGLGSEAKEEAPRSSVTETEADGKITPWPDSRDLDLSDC
row,Compound,agonistic activity
1,"CC(C)(C(=O)Nc1nc(-c2ccccc2)c(-c2ccccc2)s1)S(=O)(=O)c1ccc(Cl)cc1 [2-(4-Chloro-benzenesulfonyl)-N-(4,5-diphenyl-thiazol-2-yl)-2-methyl-propionamide]",agonistic activity
2,CC(C)(C(=O)Nc1ccc(Cl)cc1)S(=O)(=O)c1ccc(Cl)cc1 [2-(4-Chloro-benzenesulfonyl)-N-(4-chloro-phenyl)-2-methyl-propionamide],agonistic activity
3,CC(C)(C(=O)Nc1nc(C2CCCCC2)cs1)S(=O)(=O)c1ccc(Cl)cc1 [2-(4-Chloro-benzenesulfonyl)-N-(4-cyclohexyl-thiazol-2-yl)-2-methyl-propionamide],agonistic activity
4,CC(C)(C(=O)Nc1nc(C2CC2)cs1)S(=O)(=O)c1ccc(Cl)cc1 [2-(4-Chloro-benzenesulfonyl)-N-(4-cyclopropyl-thiazol-2-yl)-2-methyl-propionamide],agonistic activity
5,CCc1c(C)noc1NC(=O)C(C)(C)S(=O)(=O)c1ccc(Cl)cc1 [2-(4-Chloro-benzenesulfonyl)-N-(4-ethyl-3-methyl-isoxazol-5-yl)-2-methyl-propionamide],agonistic activity
6,CCc1ccnc(NC(=O)C(C)(C)S(=O)(=O)c2ccc(Cl)cc2)c1 [2-(4-Chloro-benzenesulfonyl)-N-(4-ethyl-pyridin-2-yl)-2-methyl-propionamide],agonistic activity
7,CC(C)(C(=O)Nc1ncc(C#N)s1)S(=O)(=O)c1ccc(Cl)cc1 [2-(4-Chloro-benzenesulfonyl)-N-(5-cyano-thiazol-2-yl)-2-methyl-propionamide],agonistic activity
8,Cn1nc(C2CCCCC2)cc1NC(=O)C(C)(C)S(=O)(=O)c1ccc(Cl)cc1 [2-(4-Chloro-benzenesulfonyl)-N-(5-cyclohexyl-2-methyl-2H-pyrazol-3-yl)-2-methyl-propionamide],agonistic activity
9,Cn1nc(C2CCCC2)cc1NC(=O)C(C)(C)S(=O)(=O)c1ccc(Cl)cc1 [2-(4-Chloro-benzenesulfonyl)-N-(5-cyclopentyl-2-methyl-2H-pyrazol-3-yl)-2-methyl-propionamide],agonistic activity
10,Cn1nc(C2CC2)cc1NC(=O)C(C)(C)S(=O)(=O)c1ccc(Cl)cc1 [2-(4-Chloro-benzenesulfonyl)-N-(5-cyclopropyl-2-methyl-2H-pyrazol-3-yl)-2-methyl-propionamide],agonistic activity
11,CCc1sc(NC(=O)C(C)(C)S(=O)(=O)c2ccc(Cl)cc2)nc1-c1ccccc1 [2-(4-Chloro-benzenesulfonyl)-N-(5-ethyl-4-phenyl-thiazol-2-yl)-2-methyl-propionamide],agonistic activity
12,CC(C)c1cc(NC(=O)C(C)(C)S(=O)(=O)c2ccc(Cl)cc2)n(C)n1 [2-(4-Chloro-benzenesulfonyl)-N-(5-isopropyl-2-methyl-2H-pyrazol-3-yl)-2-methyl-propionamide],agonistic activity
13,CC(C)c1cnc(NC(=O)C(C)(C)S(=O)(=O)c2ccc(Cl)cc2)s1 [2-(4-Chloro-benzenesulfonyl)-N-(5-isopropyl-thiazol-2-yl)-2-methyl-propionamide],agonistic activity
14,COc1ccc(NC(=O)C(C)(C)S(=O)(=O)c2ccc(Cl)cc2)cn1 [2-(4-Chloro-benzenesulfonyl)-N-(6-methoxy-pyridin-3-yl)-2-methyl-propionamide],agonistic activity
15,"CC(C)(C(=O)Nc1nc(-c2ccc(F)c(F)c2)cs1)S(=O)(=O)c1ccc(Cl)cc1 [2-(4-Chloro-benzenesulfonyl)-N-[4-(3,4-difluoro-phenyl)-thiazol-2-yl]-2-methyl-propionamide]",agonistic activity
16,CC(C)(C(=O)Nc1nc(-c2ccc(Cl)cc2)cs1)S(=O)(=O)c1ccc(Cl)cc1 [2-(4-Chloro-benzenesulfonyl)-N-[4-(4-chloro-phenyl)-thiazol-2-yl]-2-methyl-propionamide],agonistic activity
17,CC(C)(C(=O)Nc1cc2ccccc2cn1)S(=O)(=O)c1ccc(Cl)cc1 [2-(4-Chloro-benzenesulfonyl)-N-isoquinolin-3-yl-2-methyl-propionamide],agonistic activity
18,CC(C)(C(=O)Nc1ccc(C(F)(F)F)cn1)S(=O)(=O)c1ccc(C#N)cc1F [2-(4-Cyano-2-fluoro-benzenesulfonyl)-2-methyl-N-(5-trifluoromethyl-pyridin-2-yl)-propionamide],agonistic activity
19,CC(C)(C(=O)Nc1ccc(C(F)(F)F)cn1)S(=O)(=O)c1ccc(C#N)cc1 [2-(4-Cyano-benzenesulfonyl)-2-methyl-N-(5-trifluoromethyl-pyridin-2-yl)-propionamide],agonistic activity
20,CC(C)(C(=O)Nc1ccc(C(F)(F)F)cn1)S(=O)(=O)c1ccc(F)cc1 [2-(4-Fluoro-benzenesulfonyl)-2-methyl-N-(5-trifluoromethyl-pyridin-2-yl)-propionamide],agonistic activity

row,Compound,agonistic activity
1,CC(C)(C(=O)Nc1cccc(C(F)(F)F)n1)S(=O)(=O)c1ccc(F)cc1 [2-(4-Fluoro-benzenesulfonyl)-2-methyl-N-(6-trifluoromethyl-pyridin-2-yl)-propionamide],agonistic activity
2,CC(C)(C(=O)Nc1ncc(-c2ccc(F)cc2)s1)S(=O)(=O)c1ccc(F)cc1 [2-(4-Fluoro-benzenesulfonyl)-N-[5-(4-fluoro-phenyl)-thiazol-2-yl]-2-methyl-propionamide],agonistic activity
3,Cc1ccc(NC(=O)C(C)(C)S(=O)(=O)c2ccc(S(C)(=O)=O)cc2)nc1 [2-(4-Methanesulfonyl-benzenesulfonyl)-2-methyl-N-(5-methyl-pyridin-2-yl)-propionamide],agonistic activity
4,CC(C)(C(=O)Nc1cccc2ccccc12)S(=O)(=O)c1ccc(S(C)(=O)=O)cc1 [2-(4-Methanesulfonyl-benzenesulfonyl)-2-methyl-N-naphthalen-1-yl-propionamide],agonistic activity
5,CC(C)(C(=O)Nc1cnc2ccccc2c1)S(=O)(=O)c1ccc(S(C)(=O)=O)cc1 [2-(4-Methanesulfonyl-benzenesulfonyl)-2-methyl-N-quinolin-3-yl-propionamide],agonistic activity
6,COc1ccc(S(=O)(=O)C(C)(C)C(=O)Nc2cc(-c3ccccc3)nn2C)cc1 [2-(4-Methoxy-benzenesulfonyl)-2-methyl-N-(2-methyl-5-phenyl-2H-pyrazol-3-yl)-propionamide],agonistic activity
7,COc1ccc(S(=O)(=O)C(C)(C)C(=O)Nc2cc(-c3cccs3)nn2C)cc1 [2-(4-Methoxy-benzenesulfonyl)-2-methyl-N-(2-methyl-5-thiophen-2-yl-2H-pyrazol-3-yl)-propionamide],agonistic activity
8,COc1ccc(S(=O)(=O)C(C)(C)C(=O)Nc2nc(C(F)(F)F)cs2)cc1 [2-(4-Methoxy-benzenesulfonyl)-2-methyl-N-(4-trifluoromethyl-thiazol-2-yl)-propionamide],agonistic activity
9,COc1ccc(S(=O)(=O)C(C)(C)C(=O)Nc2cnc3ccccc3c2)cc1 [2-(4-Methoxy-benzenesulfonyl)-2-methyl-N-quinolin-3-yl-propionamide],agonistic activity
10,CC(C)(C)c1ccc(S(=O)(=O)C(C)(C)C(=O)Nc2cc(C(C)(C)C)on2)cc1 [2-(4-tert-Butyl-benzenesulfonyl)-N-(5-tert-butyl-isoxazol-3-yl)-2-methyl-propionamide],agonistic activity
11,CC(C)(C(=O)Nc1cccc(C(F)(F)F)n1)S(=O)(=O)c1ccc(N2CCC2)nc1 [2-(6-Azetidin-1-yl-pyridine-3-sulfonyl)-2-methyl-N-(6-trifluoromethyl-pyridin-2-yl)-propionamide],agonistic activity
12,CC(C)(C)c1csc(NC(=O)C(C)(C)S(=O)(=O)c2ccc(N3CCC3)nc2)n1 [2-(6-Azetidin-1-yl-pyridine-3-sulfonyl)-N-(4-tert-butyl-thiazol-2-yl)-2-methyl-propionamide],agonistic activity
13,CC(C)(C(=O)Nc1ccc(C(F)(F)F)cn1)S(=O)(=O)c1ccc(Cl)nc1 [2-(6-Chloro-pyridine-3-sulfonyl)-2-methyl-N-(5-trifluoromethyl-pyridin-2-yl)-propionamide],agonistic activity
14,CC(C)(C(=O)Nc1cccc(C(F)(F)F)n1)S(=O)(=O)c1ccc(Cl)nc1 [2-(6-Chloro-pyridine-3-sulfonyl)-2-methyl-N-(6-trifluoromethyl-pyridin-2-yl)-propionamide],agonistic activity
15,"CC(C)(C)c1cc(NC(=O)C(C)(C)S(=O)(=O)c2ccc3nsnc3c2)no1 [2-(Benzo[1,2,5]thiadiazole-5-sulfonyl)-N-(5-tert-butyl-isoxazol-3-yl)-2-methyl-propionamide]",agonistic activity
16,Cn1nc(-c2ccccc2)cc1NC(=O)C(C)(C)S(=O)(=O)c1ccccc1 [2-Benzenesulfonyl-2-methyl-N-(2-methyl-5-phenyl-2H-pyrazol-3-yl)-propionamide],agonistic activity
17,CC(C)(C(=O)Nc1nc(-c2ccccc2)co1)S(=O)(=O)c1ccccc1 [2-Benzenesulfonyl-2-methyl-N-(4-phenyl-oxazol-2-yl)-propionamide],agonistic activity
18,CC(C)(C(=O)Nc1nc(C(F)(F)F)cs1)S(=O)(=O)c1ccccc1 [2-Benzenesulfonyl-2-methyl-N-(4-trifluoromethyl-thiazol-2-yl)-propionamide],agonistic activity
19,CC(C)(C(=O)Nc1ccc(C(F)(F)F)cn1)S(=O)(=O)c1ccccc1 [2-Benzenesulfonyl-2-methyl-N-(5-trifluoromethyl-pyridin-2-yl)-propionamide],agonistic activity
